In patent US20060069132A1, “Azolecarboxamide herbicides” (priority 2004, published 2006):

Experiments:
[1] = tested on: morningglory; assay: Test B pre-/postemergence herbicide test; assay type: in vivo, Ipomoea coccinea; settings: for Plant response rating (0 to 100 scale), Morningglory: 0 is no effect, 100 is complete control, preemergence
Method in brief: (§1)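 Species tested were Echinochloa crus-galli, Ipomoea coccinea, Xanthium strumarium and Oryza sativa, treated both before emergence and at the 1- to 4-leaf stage; rice and barnyardgrass were also tested under flooding at 2 leaves. Greenhouse incubation lasted 13–15 days before visual 0–100 scoring.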

[2] = tested on: ducksalad; assay: Test B flooded paddy test; assay type: in vivo, Heteranthera limosa; settings: scale 0 to 100 (0 no effect, 100 complete control)
Method in brief: (§2)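 Plants grow to 1- to 4-leaf stage (2–18 cm) for postemergence spraying, or to 2-leaf stage for the paddy test. Formulated compound is applied. Greenhouse holding lasts 13–15 days. Response is scored visually relative to controls, 0 no effect to 100 complete control; a dash means no result.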

[3] = tested on: wheat; assay: Test B postemergence herbicide test; assay type: in vivo, Triticum aestivum; set-up: key to Wheat plant response rating: 0 = no effect, 100 = complete control
Method in brief: (§3)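 Treated at 2-leaf (paddy) or 1–4-leaf, 2–18 cm (postemergence); greenhouse 13–15 d; visual score vs control, 0 none to 100 complete control; dash = not tested.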

[4] = tested on: lambsquarters; assay: Test B pre-/postemergence herbicide test; assay type: in vivo, Chenopodium album; settings: for Plant response rating (0 to 100 scale), Lambsquarters: 0 is no effect, 100 is complete control, preemergence
Method in brief: (§4)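 Evaluation is visual, comparing treated with control plants on a scale where 0 means no effect and 100 means full control. Treatments were preemergence, or postemergence on seedlings 2–18 cm tall, and held 13–15 days in the greenhouse.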

[5] = tested on: blackgrass; assay: Test B postemergence herbicide test; assay type: in vivo, Alopecurus myosuroides
Method in brief: as §2

[6] = tested on: Surinam grass; assay: Test B pre-/postemergence herbicide test; assay type: in vivo, Urochloa decumbens; settings: for Plant response rating (0 to 100 scale), Surinam Grass: 0 is no effect, 100 is complete control, preemergence
Method in brief: as §4

[7] = tested on: large crabgrass; assay: Test B pre-/postemergence herbicide test; assay type: in vivo, Digitaria sanguinalis; settings: for Plant response rating (0 to 100 scale), Crabgrass, Large: 0 is no effect, 100 is complete control, preemergence
Method in brief: as §4

[8] = tested on: barnyardgrass; assay: Test B pre-/postemergence herbicide test; assay type: in vivo, Echinochloa crus-galli; settings: for Plant response rating (0 to 100 scale), Barnyardgrass: 0 is no effect, 100 is complete control, preemergence; for Barnyardgrass plant response rating: Postemergence, scale 0 (no effect) to 100 (complete control)
Method in brief: as §1

[9] = tested on: corn; assay: Test B pre-/postemergence herbicide test; assay type: in vivo, Zea mays; settings: for Plant response rating (0 to 100 scale), Corn: 0 is no effect, 100 is complete control, preemergence
Method in brief: as §4

[10] = tested on: cocklebur; assay: Test B pre-/postemergence herbicide test; assay type: in vivo, Xanthium strumarium; settings: for Plant response rating (0 to 100 scale), Cocklebur: 0 is no effect, 100 is complete control, preemergence
Method in brief: as §1

[11] = tested on: rice; assay: Test B flooded paddy test; assay type: in vivo, Oryza sativa; settings: scale 0 to 100 (0 no effect, 100 complete control)
Method in brief: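 Each value is a visual 0–100 response rating taken against controls 13 to 15 days after treatment in the greenhouse. Plants received formulated chemical postemergence at the 1- to 4-leaf stage or, in flooded paddy, at the 2-leaf stage.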

[12] = tested on: pigweed; assay: Test B pre-/postemergence herbicide test; assay type: in vivo, Amaranthus retroflexus; settings: for Plant response rating (0 to 100 scale), Pigweed: 0 is no effect, 100 is complete control, preemergence
Method in brief: as §4

[13] = tested on: velvetleaf; assay: Test B pre-/postemergence herbicide test; assay type: in vivo, Abutilon theophrasti; settings: for Plant response rating (0 to 100 scale), Velvetleaf: 0 is no effect, 100 is complete control, preemergence
Method in brief: as §4

[14] = tested on: wild oat; assay: Test B postemergence herbicide test; assay type: in vivo, Avena fatua
Method in brief: as §3

[15] = tested on: giant foxtail; assay: Test B pre-/postemergence herbicide test; assay type: in vivo, Setaria faberi; settings: for Plant response rating (0 to 100 scale), Foxtail, Giant: 0 is no effect, 100 is complete control, preemergence
Method in brief: as §4

[16] = tested on: small flower umbrella sedge; assay: Test B flooded paddy test; assay type: in vivo, Cyperus difformis; settings: scale 0 to 100 (0 no effect, 100 complete control)
Method in brief: as §2

[17] = tested on: barnyardgrass; assay: Test B flooded paddy test; assay type: in vivo, Echinochloa crus-galli; settings: scale 0 to 100 (0 no effect, 100 complete control)
Method in brief: as §2

[18] = Postemergence, 500 g ai/ha, scale 0 (no effect) to 100 (complete control)
[19] = postemergence, 125 g ai/ha, scale 0 to 100
[20] = 500 g ai/ha, scale 0 to 100, 0 no effect, 100 complete control, preemergence

SMILES: CCNC(=O)c1cncc(NC(=O)c2nn(C(C)(C)C)nc2C)c1 [Compound 427]
- Plant response rating (0 to 100 scale), Morningglory ([1]; 125 g ai/ha): 0
- Morningglory plant response rating [1, 18]: 30
- Morningglory plant response rating [1, 19]: 20
- Ducksalad plant response rating ([2]; 1000 g ai/ha): 0
- Wheat plant response rating [3, 20]: 0
- Wheat plant response rating [3, 18]: 0
- Wheat plant response rating [3, 19]: 0
- Plant response rating (0 to 100 scale), Lambsquarters ([4]; 125 g ai/ha): 10
- Lambsquarters plant response rating [4, 18]: 40
- Lambsquarters plant response rating [4, 19]: 10
- Blackgrass plant response rating [5, 18]: 20
- Blackgrass plant response rating [5, 19]: 0
- Plant response rating (0 to 100 scale), Surinam Grass ([6]; 125 g ai/ha): 0
- Surinam Grass plant response rating [6, 18]: 10
- Surinam Grass plant response rating [6, 19]: 0
- Plant response rating (0 to 100 scale), Crabgrass, Large ([7]; 125 g ai/ha): 0
- Crabgrass, Large plant response rating [7, 18]: 30
- Crabgrass, Large plant response rating [7, 19]: 0
- Plant response rating (0 to 100 scale), Barnyardgrass ([8]; 125 g ai/ha): 0
- Barnyardgrass plant response rating ([8]; 125 g ai/ha): 0
- Barnyardgrass plant response rating ([8]; 500 g ai/ha): 0
- Plant response rating (0 to 100 scale), Corn ([9]; 125 g ai/ha): 0
- Corn plant response rating [9, 18]: 0
- Corn plant response rating [9, 19]: 0
- Plant response rating (0 to 100 scale), Cocklebur ([10]; 125 g ai/ha): 0
- Cocklebur plant response rating [10, 18]: 10
- Cocklebur plant response rating [10, 19]: 10
- Rice plant response rating ([11]; 1000 g ai/ha): 0
- Plant response rating (0 to 100 scale), Pigweed ([12]; 125 g ai/ha): 30
- Pigweed plant response rating [12, 18]: 40
- Pigweed plant response rating [12, 19]: 20
- Plant response rating (0 to 100 scale), Velvetleaf ([13]; 125 g ai/ha): 0
- Velvetleaf plant response rating [13, 18]: 30
- Velvetleaf plant response rating [13, 19]: 10
- Oat, Wild plant response rating [14, 18]: 0
- Oat, Wild plant response rating [14, 19]: 0
- Plant response rating (0 to 100 scale), Foxtail, Giant ([15]; 125 g ai/ha): 0
- Foxtail, Giant plant response rating [15, 18]: 10
- Foxtail, Giant plant response rating [15, 19]: 0
- Sedge, Umbrella plant response rating ([16]; 1000 g ai/ha): 0
- Barnyardgrass plant response rating ([17]; 1000 g ai/ha): 0

SMILES: CCN(CC)C(=O)c1cncc(NC(=O)c2nn(C(C)(C)C)nc2C)c1 [Compound 428]
- Plant response rating (0 to 100 scale), Morningglory ([1]; 125 g ai/ha): 0
- Morningglory plant response rating [1, 18]: 30
- Morningglory plant response rating [1, 19]: 20
- Ducksalad plant response rating ([2]; 1000 g ai/ha): 0
- Wheat plant response rating [3, 20]: 0
- Wheat plant response rating [3, 18]: 0
- Wheat plant response rating [3, 19]: 0
- Plant response rating (0 to 100 scale), Lambsquarters ([4]; 125 g ai/ha): 0
- Lambsquarters plant response rating [4, 18]: 40
- Lambsquarters plant response rating [4, 19]: 10
- Blackgrass plant response rating [5, 18]: 0
- Blackgrass plant response rating [5, 19]: 0
- Plant response rating (0 to 100 scale), Surinam Grass ([6]; 125 g ai/ha): 0
- Surinam Grass plant response rating [6, 18]: 20
- Surinam Grass plant response rating [6, 19]: 10
- Plant response rating (0 to 100 scale), Crabgrass, Large ([7]; 125 g ai/ha): 0
- Crabgrass, Large plant response rating [7, 18]: 20
- Crabgrass, Large plant response rating [7, 19]: 10
- Plant response rating (0 to 100 scale), Barnyardgrass ([8]; 125 g ai/ha): 0
- Barnyardgrass plant response rating ([8]; 125 g ai/ha): 0
- Barnyardgrass plant response rating ([8]; 500 g ai/ha): 10
- Plant response rating (0 to 100 scale), Corn ([9]; 125 g ai/ha): 0
- Corn plant response rating [9, 18]: 10
- Corn plant response rating [9, 19]: 0
- Plant response rating (0 to 100 scale), Cocklebur ([10]; 125 g ai/ha): 0
- Cocklebur plant response rating [10, 18]: 10
- Cocklebur plant response rating [10, 19]: 0
- Rice plant response rating ([11]; 1000 g ai/ha): 30
- Plant response rating (0 to 100 scale), Pigweed ([12]; 125 g ai/ha): 30
- Pigweed plant response rating [12, 18]: 30
- Pigweed plant response rating [12, 19]: 20
- Plant response rating (0 to 100 scale), Velvetleaf ([13]; 125 g ai/ha): 0
- Velvetleaf plant response rating [13, 18]: 20
- Velvetleaf plant response rating [13, 19]: 10
- Oat, Wild plant response rating [14, 18]: 0
- Oat, Wild plant response rating [14, 19]: 0
- Plant response rating (0 to 100 scale), Foxtail, Giant ([15]; 125 g ai/ha): 0
- Foxtail, Giant plant response rating [15, 18]: 10
- Foxtail, Giant plant response rating [15, 19]: 10
- Sedge, Umbrella plant response rating ([16]; 1000 g ai/ha): 0
- Barnyardgrass plant response rating ([17]; 1000 g ai/ha): 0

SMILES: CCOC(=O)c1cccc(NC(=O)c2nn(C(C)(C)C)nc2Br)c1 [Compound 432]
- Plant response rating (0 to 100 scale), Morningglory ([1]; 125 g ai/ha): 0
- Morningglory plant response rating [1, 18]: 30
- Morningglory plant response rating [1, 19]: 20
- Ducksalad plant response rating ([2]; 125 g ai/ha): 30
- Wheat plant response rating [3, 20]: 0
- Wheat plant response rating [3, 18]: 60
- Wheat plant response rating [3, 19]: 50
- Plant response rating (0 to 100 scale), Lambsquarters ([4]; 125 g ai/ha): 0
- Lambsquarters plant response rating [4, 18]: 30
- Lambsquarters plant response rating [4, 19]: 0
- Blackgrass plant response rating [5, 18]: 40
- Blackgrass plant response rating [5, 19]: 40
- Plant response rating (0 to 100 scale), Surinam Grass ([6]; 125 g ai/ha): 10
- Surinam Grass plant response rating [6, 18]: 70
- Surinam Grass plant response rating [6, 19]: 10
- Plant response rating (0 to 100 scale), Crabgrass, Large ([7]; 125 g ai/ha): 30
- Crabgrass, Large plant response rating [7, 18]: 30
- Crabgrass, Large plant response rating [7, 19]: 10
- Plant response rating (0 to 100 scale), Barnyardgrass ([8]; 125 g ai/ha): 10
- Barnyardgrass plant response rating ([8]; 125 g ai/ha): 20
- Barnyardgrass plant response rating ([8]; 500 g ai/ha): 60
- Plant response rating (0 to 100 scale), Corn ([9]; 125 g ai/ha): 0
- Corn plant response rating [9, 18]: 30
- Corn plant response rating [9, 19]: 30
- Plant response rating (0 to 100 scale), Cocklebur ([10]; 125 g ai/ha): 0
- Cocklebur plant response rating [10, 18]: 70
- Cocklebur plant response rating [10, 19]: 40
- Rice plant response rating ([11]; 125 g ai/ha): 0
- Plant response rating (0 to 100 scale), Pigweed ([12]; 125 g ai/ha): 0
- Pigweed plant response rating [12, 18]: 10
- Pigweed plant response rating [12, 19]: 0
- Plant response rating (0 to 100 scale), Velvetleaf ([13]; 125 g ai/ha): 0
- Velvetleaf plant response rating [13, 18]: 60
- Velvetleaf plant response rating [13, 19]: 50
- Oat, Wild plant response rating [14, 18]: 60
- Oat, Wild plant response rating [14, 19]: 50
- Plant response rating (0 to 100 scale), Foxtail, Giant ([15]; 125 g ai/ha): 40
- Foxtail, Giant plant response rating [15, 18]: 40
- Foxtail, Giant plant response rating [15, 19]: 0
- Sedge, Umbrella plant response rating ([16]; 125 g ai/ha): 80
- Barnyardgrass plant response rating ([17]; 125 g ai/ha): 30
